Where a SMILES comes first, the peptide text is derived from it. Bridges are numbered along the chain shown (N, C = ends). [ ]: non-standard residue; d: D form. The star is where a group is joined. Phe(3-CF3) = N[C@@H](Cc1cccc(C(F)(F)F)c1)C(=O)O; Ala(morpholin-4-yl) = N[C@@H](CN1CCOCC1)C(=O)O; Phe(4-COOH) = N[C@@H](Cc1ccc(C(=O)O)cc1)C(=O)O; Bip = N[C@@H](Cc1ccc(-c2ccccc2)cc1)C(=O)O; Phe(3-Me) = Cc1cccc(C[C@H](N)C(=O)O)c1; Abu(3S-NH2) = C[C@H](N)[C@H](N)C(=O)O; Val(3-OH) = CC(C)(O)[C@H](N)C(=O)O; Cha = N[C@@H](CC1CCCCC1)C(=O)O; Tle = CC(C)(C)[C@H](N)C(=O)O; Carboxymethyl = O=C(O)C*; Nle = CCCC[C@H](N)C(=O)O; Orn = NCCC[C@H](N)C(=O)O; Pra = C#CC[C@H](N)C(=O)O; Dab = NCC[C@H](N)C(=O)O; Nva = CCC[C@H](N)C(=O)O
Each molecule was assayed against T1, human PD-1 / PD-L1-Ig binding on Jurkat cell line over-expressing human PD-1 (Jurkat-PD-1) (Homo sapiens, UniProt Q15116) (assay: Jurkat-PD-1 Cell Binding High-Content Screening Assay (CBA)). Conditions: Jurkat-PD-1 cells, PE-labeled PD-L1-Ig 20 nM final; read-out: Jurkat HPD1_PDL1 IC50.
T1 construct: expressed in transfected cells; host or cells: Jurkat
T1 sequence (Q15116 25-288): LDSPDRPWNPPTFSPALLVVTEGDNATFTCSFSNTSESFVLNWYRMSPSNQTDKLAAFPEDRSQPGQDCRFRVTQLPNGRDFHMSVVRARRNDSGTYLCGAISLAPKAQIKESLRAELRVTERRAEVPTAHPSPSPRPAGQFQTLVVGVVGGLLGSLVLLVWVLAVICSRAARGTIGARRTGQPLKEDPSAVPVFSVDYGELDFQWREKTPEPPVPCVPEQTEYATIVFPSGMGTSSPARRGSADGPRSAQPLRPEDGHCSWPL
Assay type: cell-based
How it was run: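 Jurkat cells over-expressing human PD-1, in DMEM/10% FCS, pre-incubated with compound 2 h at 37° C. PE-labeled human PD-L1-Ig (20 nM final) added for 1 h; cells fixed in paraformaldehyde with Hoechst 33342 nuclear stain, washed, and bound fluorescence quantified by high-content imaging.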

IC50 [nM] | Compound
412 | C#CC[C@H](NC(=O)[C@@H]1CSCC(=O)N[C@@H](CCC)C(=O)N[C@@H](Cc2ccc(OCC(=O)O)cc2)C(=O)N[C@@H](CC(=O)O)C(=O)N[C@@H](Cc2cccc(C)c2)C(=O)N[C@@H](Cc2ccc(OCC(=O)O)cc2)C(=O)N[C@@H](Cc2ccc(-c3ccccc3)cc2)C(=O)N[C@@H](Cc2ccc(OCC(=O)O)cc2)C(=O)N[C@@H](CCCC)C(=O)N[C@H](CC(C)C)C(=O)N[C@@H](CCN)C(=O)N[C@@H](CC2CCCCC2)C(=O)N[C@@H](C(C)C)C(=O)N[C@@H](CCC(=O)O)C(=O)N1)C(=O)O [Compound 2703] ({CH2CO}-[Nva]Y(Carboxymethyl)D[Phe(3-Me)]Y(Carboxymethyl)[Bip]Y(Carboxymethyl)[Nle][dL][Dab][Cha]VEC[Pra]-OH; thioether N-14)
316 | C#CC[C@H](NC(=O)[C@@H]1CSCC(=O)N[C@@H](CCN)C(=O)N[C@@H](Cc2ccc(C(=O)O)cc2)C(=O)N[C@@H](CC(=O)O)C(=O)N[C@@H](Cc2cccc(C)c2)C(=O)N[C@@H](Cc2ccc(C(=O)O)cc2)C(=O)N[C@@H](Cc2ccc(-c3ccccc3)cc2)C(=O)N[C@@H](Cc2ccc(C(=O)O)cc2)C(=O)N[C@@H](CCCN)C(=O)N[C@H](CC(C)C)C(=O)N[C@@H](CCN)C(=O)N[C@@H](CC2CCCCC2)C(=O)N[C@@H](C(C)(C)O)C(=O)N[C@@H](CO)C(=O)N1)C(=O)O [Compound 2704] ({CH2CO}-[Dab][Phe(4-COOH)]D[Phe(3-Me)][Phe(4-COOH)][Bip][Phe(4-COOH)][Orn][dL][Dab][Cha][Val(3-OH)]SC[Pra]-OH; thioether N-14)
2.8 | CC(C)C[C@H]1NC(=O)[C@H](CCCN)NC(=O)[C@H](Cc2ccc(C(=O)O)cc2)NC(=O)[C@H](Cc2ccc(-c3ccccc3)cc2)NC(=O)[C@H](Cc2ccc(C(=O)O)cc2)NC(=O)[C@H](Cc2cccc(C(F)(F)F)c2)NC(=O)[C@H](CC(=O)O)NC(=O)[C@H](Cc2ccc(C(=O)O)cc2)NC(=O)[C@H](CN2CCOCC2)NC(=O)CSC[C@@H](C(=O)N[C@@H](CCN)C(N)=O)NC(=O)[C@H](CCC(=O)O)NC(=O)[C@H](C(C)C)NC(=O)[C@H](CC2CCCCC2)NC(=O)[C@H](CCN)NC1=O [Example 2712] ({CH2CO}-[Ala(morpholin-4-yl)][Phe(4-COOH)]D[Phe(3-CF3)][Phe(4-COOH)][Bip][Phe(4-COOH)][Orn][dL][Dab][Cha]VEC[Dab]-NH2; thioether N-14)
0.3 | CCCC[C@@H]1NC(=O)CSC[C@@H](C(=O)N[C@@H](CCN)C(N)=O)NC(=O)[C@H](CCC(=O)O)NC(=O)[C@H](C(C)(C)O)NC(=O)[C@H](CC2CCCCC2)NC(=O)[C@H](CCN)NC(=O)[C@@H](CC(C)C)NC(=O)[C@H](CCCN)NC(=O)[C@H](Cc2ccc(C(=O)O)cc2)NC(=O)[C@H](Cc2ccc(-c3ccccc3)cc2)NC(=O)[C@H](Cc2ccc(C(=O)O)cc2)NC(=O)[C@H](Cc2cccc(C)c2)NC(=O)[C@H](CC(=O)O)NC(=O)[C@H](Cc2ccc(OCC(=O)O)cc2)NC1=O [Example 2714] ({CH2CO}-[Nle]Y(Carboxymethyl)D[Phe(3-Me)][Phe(4-COOH)][Bip][Phe(4-COOH)][Orn][dL][Dab][Cha][Val(3-OH)]EC[Dab]-NH2; thioether N-14)

More lines, now with the values behind:

Compound | IC50 [nM]
C#CC[C@H](NC(=O)[C@@H]1CSCC(=O)N[C@@H](CCC)C(=O)N[C@@H](Cc2ccc(OCC(=O)O)cc2)C(=O)N[C@@H](CC(=O)O)C(=O)N[C@@H](Cc2cccc(C)c2)C(=O)N[C@@H](Cc2ccc(OCC(=O)O)cc2)C(=O)N[C@@H](Cc2ccc(-c3ccccc3)cc2)C(=O)N[C@@H](Cc2ccc(OCC(=O)O)cc2)C(=O)N[C@@H](CCCN)C(=O)N[C@H](CC(C)C)C(=O)N[C@@H](CCC)C(=O)N[C@@H](CC2CCCCC2)C(=O)N[C@@H](C(C)C)C(=O)N[C@@H](CCC(=O)O)C(=O)N1)C(=O)O [Compound 2701] ({CH2CO}-[Nva]Y(Carboxymethyl)D[Phe(3-Me)]Y(Carboxymethyl)[Bip]Y(Carboxymethyl)[Orn][dL][Nva][Cha]VEC[Pra]-OH; thioether N-14) | 163
C#CC[C@H](NC(=O)[C@@H]1CSCC(=O)N[C@@H](CCC)C(=O)N[C@@H](Cc2ccc(OCC(=O)O)cc2)C(=O)N[C@@H](CC(=O)O)C(=O)N[C@@H](Cc2cccc(C)c2)C(=O)N[C@@H](Cc2ccc(OCC(=O)O)cc2)C(=O)N[C@@H](Cc2ccc(-c3ccccc3)cc2)C(=O)N[C@@H](Cc2ccc(OCC(=O)O)cc2)C(=O)N[C@@H](CCCN)C(=O)N[C@H](CC(C)C)C(=O)N[C@@H](CCN)C(=O)N[C@@H](CC2CCCCC2)C(=O)N[C@@H](C(C)C)C(=O)N[C@@H](CCC(=O)O)C(=O)N1)C(=O)O [Compound 2702] ({CH2CO}-[Nva]Y(Carboxymethyl)D[Phe(3-Me)]Y(Carboxymethyl)[Bip]Y(Carboxymethyl)[Orn][dL][Dab][Cha]VEC[Pra]-OH; thioether N-14) | 50.5
C#CC[C@H](NC(=O)[C@H](CCN)NC(=O)[C@@H]1CSCC(=O)N[C@@H](CC(C)C)C(=O)N[C@@H](Cc2ccc(C(=O)O)cc2)C(=O)N[C@@H](CC(=O)O)C(=O)N[C@@H](Cc2cccc(C)c2)C(=O)N[C@@H](Cc2ccc(C(=O)O)cc2)C(=O)N[C@@H](Cc2ccc(-c3ccccc3)cc2)C(=O)N[C@@H](Cc2ccc(C(=O)O)cc2)C(=O)N[C@@H](CCCN)C(=O)N[C@H](CC(C)C)C(=O)N[C@@H](CCN)C(=O)N[C@@H](CC2CCCCC2)C(=O)N[C@@H](C(C)C)C(=O)N[C@@H](CCC(=O)O)C(=O)N1)C(=O)O [Compound 2706] ({CH2CO}-L[Phe(4-COOH)]D[Phe(3-Me)][Phe(4-COOH)][Bip][Phe(4-COOH)][Orn][dL][Dab][Cha]VEC[Dab][Pra]-OH; thioether N-14) | 2.4
C#CC[C@H](NC(=O)[C@H](CCN)NC(=O)[C@@H]1CSCC(=O)N[C@@H](CC(C)C)C(=O)N[C@@H](Cc2ccc(OCC(=O)O)cc2)C(=O)N[C@@H](CC(=O)O)C(=O)N[C@@H](Cc2cccc(C)c2)C(=O)N[C@@H](Cc2ccc(OCC(=O)O)cc2)C(=O)N[C@@H](Cc2ccc(-c3ccccc3)cc2)C(=O)N[C@@H](Cc2ccc(OCC(=O)O)cc2)C(=O)N[C@@H](CCCN)C(=O)N[C@H](CC(C)C)C(=O)N[C@@H](CCN)C(=O)N[C@@H](CC2CCCCC2)C(=O)N[C@@H](C(C)C)C(=O)N[C@@H](CCC(=O)O)C(=O)N1)C(=O)O [Compound 2707] ({CH2CO}-LY(Carboxymethyl)D[Phe(3-Me)]Y(Carboxymethyl)[Bip]Y(Carboxymethyl)[Orn][dL][Dab][Cha]VEC[Dab][Pra]-OH; thioether N-14) | 5
CC(C)C[C@H]1NC(=O)[C@H](CCCN)NC(=O)[C@H](Cc2ccc(C(=O)O)cc2)NC(=O)[C@H](Cc2ccc(-c3ccccc3)cc2)NC(=O)[C@H](Cc2ccc(C(=O)O)cc2)NC(=O)[C@H](Cc2cccc(C(F)(F)F)c2)NC(=O)[C@H](CC(=O)O)NC(=O)[C@H](Cc2ccc(C(=O)O)cc2)NC(=O)[C@H]([C@H](C)N)NC(=O)CSC[C@@H](C(=O)N[C@@H](CCN)C(N)=O)NC(=O)[C@H](CO)NC(=O)[C@H](C(C)(C)C)NC(=O)[C@H](CC2CCCCC2)NC(=O)[C@H](CCN)NC1=O [Example 2708] ({CH2CO}-[Abu(3S-NH2)][Phe(4-COOH)]D[Phe(3-CF3)][Phe(4-COOH)][Bip][Phe(4-COOH)][Orn][dL][Dab][Cha][Tle]SC[Dab]-NH2; thioether N-14) | 0.6
Cc1cccc(C[C@@H]2NC(=O)[C@H](CC(=O)O)NC(=O)[C@H](Cc3ccc(C(=O)O)cc3)NC(=O)[C@H](CCN)NC(=O)CSC[C@@H](C(=O)N[C@@H](CCN)C(N)=O)NC(=O)[C@H](CO)NC(=O)[C@H](C(C)(C)O)NC(=O)[C@H](CC3CCCCC3)NC(=O)[C@H](CCN)NC(=O)[C@@H](CC(C)C)NC(=O)[C@H](CCCN)NC(=O)[C@H](Cc3ccc(C(=O)O)cc3)NC(=O)[C@H](Cc3ccc(-c4ccccc4)cc3)NC(=O)[C@H](Cc3ccc(C(=O)O)cc3)NC2=O)c1 [Example 2709] ({CH2CO}-[Dab][Phe(4-COOH)]D[Phe(3-Me)][Phe(4-COOH)][Bip][Phe(4-COOH)][Orn][dL][Dab][Cha][Val(3-OH)]SC[Dab]-NH2; thioether N-14) | 2.3
CC(C)C[C@H]1NC(=O)[C@H](CCCN)NC(=O)[C@H](Cc2ccc(C(=O)O)cc2)NC(=O)[C@H](Cc2ccc(-c3ccccc3)cc2)NC(=O)[C@H](Cc2ccc(C(=O)O)cc2)NC(=O)[C@H](Cc2cccc(C(F)(F)F)c2)NC(=O)[C@H](CC(=O)O)NC(=O)[C@H](Cc2ccc(C(=O)O)cc2)NC(=O)[C@H](CN2CCOCC2)NC(=O)CSC[C@@H](C(=O)N[C@@H](CCN)C(N)=O)NC(=O)[C@H](CO)NC(=O)[C@H](C(C)(C)O)NC(=O)[C@H](CC2CCCCC2)NC(=O)[C@H](CCN)NC1=O [Example 2710] ({CH2CO}-[Ala(morpholin-4-yl)][Phe(4-COOH)]D[Phe(3-CF3)][Phe(4-COOH)][Bip][Phe(4-COOH)][Orn][dL][Dab][Cha][Val(3-OH)]SC[Dab]-NH2; thioether N-14) | 1.2
CCCC[C@@H]1NC(=O)CSC[C@@H](C(=O)N[C@@H](CCN)C(N)=O)NC(=O)[C@H](CO)NC(=O)[C@H](C(C)(C)O)NC(=O)[C@H](CC2CCCCC2)NC(=O)[C@H](CCN)NC(=O)[C@@H](CC(C)C)NC(=O)[C@H](CCCN)NC(=O)[C@H](Cc2ccc(C(=O)O)cc2)NC(=O)[C@H](Cc2ccc(-c3ccccc3)cc2)NC(=O)[C@H](Cc2ccc(C(=O)O)cc2)NC(=O)[C@H](Cc2cccc(C(F)(F)F)c2)NC(=O)[C@H](CC(=O)O)NC(=O)[C@H](Cc2ccc(OCC(=O)O)cc2)NC1=O [Example 2713] ({CH2CO}-[Nle]Y(Carboxymethyl)D[Phe(3-CF3)][Phe(4-COOH)][Bip][Phe(4-COOH)][Orn][dL][Dab][Cha][Val(3-OH)]SC[Dab]-NH2; thioether N-14) | 0.7
